Results taken from ChEMBL document CHEMBL1201862, “PubChem BioAssay data set” (2004).
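Following 48 hours of exposure in 96-well plates, responses at five concentrations were used to interpolate endpoints linearly. GI50 marks 50% less growth.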 Active and inactive are the calls of the source. No stated cut-off is given here; in the data, active = GI50 up to about 1.1 µM and inactive = higher.

Assays:
Test in all cases: NCI tumour cell line growth inhibition, 48 h
SNB-75 = tested on: SNB-75
Hs-578T = tested on: Hs-578T
U-251 = tested on: U-251
RXF 393 = tested on: RXF 393
NCI-H226 = tested on: NCI-H226
A498 = tested on: A498
SNB-19 = tested on: SNB-19
SF-295 = tested on: SF-295
MDA-MB-435 = tested on: MDA-MB-435
NCI/ADR-RES = tested on: NCI/ADR-RES
SN12C = tested on: SN12C
TK-10 = tested on: TK-10
IGROV-1 = tested on: IGROV-1
UACC-62 = tested on: UACC-62
UO-31 = tested on: UO-31
KM12 = tested on: KM12
LOX IMVI = tested on: LOX IMVI
EKVX = tested on: EKVX
OVCAR-5 = tested on: OVCAR-5

Measured: GI50

CN(C)CCCNc1c(C#N)[n+]([O-])c2cc(Cl)ccc2[n+]1[O-]
inactive: SNB-75 31.9 µM | Hs-578T 31.6 µM | U-251 15.2 µM | RXF 393 21.2 µM | NCI-H226 12.4 µM | A498 22.1 µM | SNB-19 26.2 µM | SF-295 10.6 µM | MDA-MB-435 17.3 µM | NCI/ADR-RES 13.2 µM | SN12C 17.9 µM | TK-10 6.4 µM | IGROV-1 1.71 µM | UACC-62 5.48 µM | UO-31 13.4 µM | KM12 7.73 µM | LOX IMVI 10.2 µM | EKVX 5.78 µM | OVCAR-5 > 61.7 µM

CC(Cc1ccc(O)cc1)NCC(O)c1ccc(O)c(O)c1 (stereo unspecified)
inactive: SNB-75 > 100 µM | Hs-578T > 100 µM | U-251 > 100 µM | RXF 393 > 100 µM | NCI-H226 > 100 µM | A498 > 100 µM | SNB-19 > 100 µM | SF-295 > 100 µM | MDA-MB-435 > 100 µM | NCI/ADR-RES > 100 µM | SN12C > 100 µM | TK-10 > 100 µM | IGROV-1 > 100 µM | UACC-62 > 100 µM | UO-31 > 100 µM | KM12 > 100 µM | LOX IMVI > 100 µM | EKVX > 100 µM | OVCAR-5 > 100 µM

COc1cc(/C=C2\CCC/C(=C\c3cc(OC)c(O)c(OC)c3)C2=O)cc(OC)c1O
inactive: SNB-75 9.86 µM | Hs-578T 3.75 µM | U-251 1.36 µM | RXF 393 1.43 µM | NCI-H226 10.4 µM | A498 1.41 µM | SNB-19 1.81 µM | SF-295 2.03 µM | MDA-MB-435 1.84 µM | NCI/ADR-RES 2.19 µM | SN12C 2.32 µM | TK-10 5.33 µM | IGROV-1 1.22 µM | UACC-62 1.38 µM | UO-31 1.69 µM | KM12 1.38 µM | LOX IMVI 1.91 µM | EKVX 4.5 µM | OVCAR-5 2.05 µM

Cc1ccc(C2(c3ccc(C)c(O)c3C)CCN(C)CC2)c(C)c1O
inactive: SNB-75 > 100 µM | Hs-578T > 100 µM | U-251 39.4 µM | RXF 393 78.5 µM | NCI-H226 > 100 µM | A498 41.7 µM | SNB-19 62.4 µM | SF-295 33.3 µM | MDA-MB-435 92.9 µM | NCI/ADR-RES > 100 µM | SN12C 37.2 µM | TK-10 19.9 µM | IGROV-1 > 100 µM | UACC-62 > 100 µM | UO-31 > 100 µM | KM12 46.5 µM | LOX IMVI 34.8 µM | EKVX 44.4 µM | OVCAR-5 > 100 µM

COc1ccc(N2C(=O)CC(c3c[nH]c4ncccc34)C2=O)cc1 (stereo unspecified)
inactive: SNB-75 > 100 µM | Hs-578T > 100 µM | U-251 > 100 µM | RXF 393 23.9 µM | NCI-H226 > 100 µM | A498 58.5 µM | SNB-19 > 100 µM | SF-295 > 100 µM | MDA-MB-435 14.4 µM | NCI/ADR-RES > 53 µM | SN12C 18.5 µM | TK-10 14.2 µM | IGROV-1 21.3 µM | UACC-62 > 50.9 µM | UO-31 32.4 µM | KM12 > 100 µM | LOX IMVI > 100 µM | EKVX 37.1 µM | OVCAR-5 63.2 µM

CCCCCC(O)[C@H]1C(=O)C[C@@H](O[Si](C)(C)C(C)(C)C)[C@@H]1/C=C/CCOCc1ccccc1 (stereo partly specified)
inactive: SNB-75 17.8 µM | Hs-578T 7.19 µM | U-251 12.1 µM | RXF 393 12.2 µM | NCI-H226 14 µM | A498 17.8 µM | SNB-19 15 µM | SF-295 2.39 µM | MDA-MB-435 7.31 µM | NCI/ADR-RES 12.1 µM | SN12C 19.1 µM | TK-10 15.1 µM | IGROV-1 12.8 µM | UACC-62 11.8 µM | UO-31 14.5 µM | KM12 5.41 µM | LOX IMVI 10.9 µM | EKVX 17.4 µM | OVCAR-5 17.9 µM

Fc1cc2nc3n(c2cc1F)C(c1c(Cl)cccc1Cl)SC3 (stereo unspecified)
inactive: SNB-75 13.7 µM | Hs-578T 18.4 µM | U-251 17.1 µM | RXF 393 14.9 µM | NCI-H226 24.7 µM | A498 20.1 µM | SNB-19 14 µM | SF-295 13.4 µM | MDA-MB-435 15.1 µM | NCI/ADR-RES 16.1 µM | SN12C 16.3 µM | TK-10 18.2 µM | IGROV-1 18.5 µM | UACC-62 12.6 µM | UO-31 15.8 µM | KM12 13.4 µM | LOX IMVI 16.3 µM | EKVX 18.4 µM | OVCAR-5 14.3 µM

CCOC(=O)C(O)(C(=O)OCC)c1cc(C(C)(C)C)c(O)c(C(C)(C)C)c1
inactive: SNB-75 27.4 µM | Hs-578T 32.7 µM | U-251 41 µM | RXF 393 21.1 µM | NCI-H226 16.4 µM | A498 50.8 µM | SNB-19 26 µM | SF-295 22.5 µM | MDA-MB-435 37.2 µM | NCI/ADR-RES 18.6 µM | SN12C 43.4 µM | TK-10 34.5 µM | IGROV-1 45 µM | UACC-62 22.9 µM | UO-31 52.2 µM | KM12 34.8 µM | LOX IMVI 37.2 µM | EKVX 48.4 µM | OVCAR-5 41.2 µM

CC(C)(C)Nc1noc(=O)n1C(C)(C)C
inactive: SNB-75 > 100 µM | Hs-578T > 100 µM | U-251 > 100 µM | RXF 393 > 100 µM | NCI-H226 > 100 µM | A498 > 100 µM | SNB-19 > 100 µM | SF-295 > 100 µM | MDA-MB-435 > 100 µM | NCI/ADR-RES > 100 µM | SN12C > 100 µM | TK-10 > 100 µM | IGROV-1 > 100 µM | UACC-62 > 100 µM | UO-31 > 100 µM | KM12 > 100 µM | LOX IMVI > 100 µM | EKVX > 100 µM | OVCAR-5 > 100 µM

Nc1ncnc2c1ncn2[C@H]1CC[C@@H](NO)C1
inactive: SNB-75 > 100 µM | Hs-578T > 100 µM | U-251 > 100 µM | RXF 393 > 100 µM | NCI-H226 > 100 µM | A498 > 100 µM | SNB-19 > 100 µM | SF-295 > 100 µM | MDA-MB-435 > 100 µM | NCI/ADR-RES > 100 µM | SN12C > 100 µM | TK-10 > 100 µM | IGROV-1 > 100 µM | UACC-62 > 100 µM | UO-31 > 100 µM | KM12 > 100 µM | LOX IMVI > 100 µM | EKVX > 100 µM | OVCAR-5 > 100 µM

C[C@H](CC[C@@H](O)C(C)(C)O)[C@H]1CC[C@@]2(C)[C@@H]3CC=C4[C@@H](CC[C@H](OC5OC(CO)C(O)C(O)C5O)C4(C)C)[C@]3(C)C(=O)C[C@]12C (stereo partly specified)
inactive: SNB-75 34.3 µM | Hs-578T 37.3 µM | U-251 33.6 µM | RXF 393 35.2 µM | NCI-H226 > 100 µM | A498 > 100 µM | SNB-19 62.5 µM | SF-295 90.4 µM | MDA-MB-435 42.6 µM | NCI/ADR-RES > 100 µM | SN12C 69 µM | TK-10 60.8 µM | IGROV-1 19.8 µM | UACC-62 58.1 µM | UO-31 28.9 µM | KM12 > 100 µM | LOX IMVI 39 µM | EKVX 80.4 µM | OVCAR-5 > 100 µM

O=c1[nH]nc(Cc2ccc([N+](=O)[O-])cc2)[nH]1
inactive: SNB-75 > 100 µM | Hs-578T 75 µM | U-251 > 100 µM | RXF 393 > 100 µM | NCI-H226 > 100 µM | A498 > 100 µM | SNB-19 > 100 µM | SF-295 > 100 µM | MDA-MB-435 > 100 µM | NCI/ADR-RES > 100 µM | SN12C > 100 µM | TK-10 > 100 µM | IGROV-1 > 100 µM | UACC-62 > 100 µM | UO-31 52.5 µM | KM12 > 100 µM | LOX IMVI > 100 µM | EKVX 54.6 µM | OVCAR-5 > 100 µM

Cc1nc2[nH]ccn2c(=O)c1CCCl
inactive: SNB-75 39.3 µM | Hs-578T 37.6 µM | U-251 20.9 µM | RXF 393 19.4 µM | NCI-H226 > 100 µM | A498 19 µM | SNB-19 57.1 µM | SF-295 31.6 µM | MDA-MB-435 > 10 µM | NCI/ADR-RES 26.5 µM | SN12C 19.6 µM | TK-10 31 µM | IGROV-1 26.2 µM | UACC-62 24.8 µM | UO-31 33 µM | KM12 20.4 µM | LOX IMVI 16.6 µM | EKVX > 100 µM | OVCAR-5 > 100 µM

CC(=O)n1cc(C2CC23N=C(c2ccccc2)OC3=O)c2ccccc21 (stereo unspecified)
inactive: SNB-75 19 µM | Hs-578T 24.1 µM | U-251 18.1 µM | RXF 393 16.3 µM | NCI-H226 23.6 µM | A498 22.6 µM | SNB-19 31.3 µM | SF-295 36.7 µM | MDA-MB-435 21.1 µM | NCI/ADR-RES 18.2 µM | SN12C 14.7 µM | TK-10 20 µM | IGROV-1 16.8 µM | UACC-62 16.9 µM | UO-31 15.5 µM | KM12 20.2 µM | LOX IMVI 16 µM | EKVX 21.8 µM | OVCAR-5 22 µM
